Laboratory results reported in ChEMBL document CHEMBL4725396, “Discovery and optimization of pyrazolopyrimidine sulfamates as ATG7 inhibitors” (Bioorg Med Chem, 2020).

Legend:
[1] = test system: NCI-H1650; experiment: Antiproliferative activity against human H1650 cells assessed as reduction in cell viability after 72 hrs by cell titer glow assay; assay type: cell-based; conditions: NCI-H1650, 72 h
[2] = […] of autophagy in human H4 cells assessed as decrease in LC3B spot area by immunofluorescence assay; assay type: functional, cell-based
[3] = target: T1, Ubiquitin-like modifier-activating enzyme ATG7 (Homo sapiens, UniProt O95352); experiment: Inhibition of recombinant His-tagged human ATG7 incubated for 105 mins in presence of GST-tagged ATG3 and Flag-tagged Gabarap and measured after 2 hrs by FRET assay relative to control
T1 sequence (O95352 whole entry): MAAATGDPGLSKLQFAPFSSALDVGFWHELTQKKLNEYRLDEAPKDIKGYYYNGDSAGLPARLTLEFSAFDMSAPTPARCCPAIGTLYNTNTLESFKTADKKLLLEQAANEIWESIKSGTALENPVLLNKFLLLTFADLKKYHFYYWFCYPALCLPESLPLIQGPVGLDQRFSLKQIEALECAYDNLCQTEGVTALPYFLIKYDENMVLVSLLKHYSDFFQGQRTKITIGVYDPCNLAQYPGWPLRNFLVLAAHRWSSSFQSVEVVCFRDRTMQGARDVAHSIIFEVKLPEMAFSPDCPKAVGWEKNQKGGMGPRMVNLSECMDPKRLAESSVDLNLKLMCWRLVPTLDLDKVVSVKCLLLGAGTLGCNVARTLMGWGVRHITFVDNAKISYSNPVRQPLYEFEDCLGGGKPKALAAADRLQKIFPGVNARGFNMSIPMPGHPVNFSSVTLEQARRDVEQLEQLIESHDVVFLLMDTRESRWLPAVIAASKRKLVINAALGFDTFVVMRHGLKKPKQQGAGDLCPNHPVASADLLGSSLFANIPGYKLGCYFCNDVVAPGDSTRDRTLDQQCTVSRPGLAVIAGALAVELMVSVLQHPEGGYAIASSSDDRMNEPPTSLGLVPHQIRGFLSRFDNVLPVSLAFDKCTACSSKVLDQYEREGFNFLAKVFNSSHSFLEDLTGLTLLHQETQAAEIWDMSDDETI

[4] = target: T1, Ubiquitin-like modifier-activating enzyme ATG7; experiment: Inhibition of ATG7 in human 293HEK cells assessed as inhibition of ATG7:ATG8 thioester formation after 8 hrs by Western blot analysis; assay type: cell-based, HEK293
[5] = target: T1, Ubiquitin-like modifier-activating enzyme ATG7; experiment: Inhibition of ATG7 in human 293HEK cells assessed as inhibition of ATG7:ATG8 thioester formation after 4 hrs by Western blot analysis; assay type: cell-based, HEK293
[6] = Inhibition of UAE (unknown origin)
[7] = Inhibition of SAE (unknown origin)
[8] = Inhibition of NAE (unknown origin)
[9] = test system: SK-OV-3; experiment: […] of autophagy in human SKOV3 cells assessed as accumulation of p62 by immunofluorescence assay; assay type: functional, cell-based
[10] = test system: SK-OV-3; experiment: […] of autophagy in human SKOV3 cells assessed as accumulation of NRB1 by immunofluorescence assay; assay type: functional, cell-based

## Nc1ncnc2c1c(Sc1cccc(Cl)c1)nn2[C@H]1C[C@H](O)[C@H](COS(N)(=O)=O)O1
[1]
  EC50: > 50000 nM
[2]
  IC50: 1370 nM
[3]
  IC50: 190 nM

## CSc1nn([C@@H]2O[C@@H](COS(N)(=O)=O)[C@@H](O)[C@@H]2F)c2ncnc(N)c12
[1]
  EC50: > 50000 nM
[2]
  IC50: 2530 nM
[3]
  IC50: 145 nM

## Nc1ncnc2c1c(OC(F)F)nn2[C@H]1C[C@H](O)[C@@H](COS(N)(=O)=O)O1
[1]
  EC50: > 50000 nM
[4]
  IC50: 545 nM
[2]
  IC50: 1770 nM
[3]
  IC50: 100 nM

## CC(C)Sc1nn([C@@H]2O[C@H](COS(N)(=O)=O)[C@@H](O)[C@@H]2F)c2ncnc(N)c12
[5]
  IC50: 199 nM
[1]
  EC50: 22400 nM
[4]
  IC50: 56 nM
[2]
  IC50: 727 nM
[3]
  IC50: 20 nM

## CSc1nn([C@@H]2O[C@H](COS(N)(=O)=O)[C@@H](O)[C@@H]2F)c2ncnc(N)c12
[1]
  EC50: 5790 nM
[4]
  IC50: 47 nM
[2]
  IC50: 977 nM
[3]
  IC50: 41 nM

## Nc1ncnc2c1c(OCc1ccccc1)nn2[C@@H]1O[C@H](COS(N)(=O)=O)[C@@H](O)[C@H]1O
[1]
  EC50: > 50000 nM
[4]
  IC50: 1280 nM
[3]
  IC50: 264 nM

## COc1nn([C@H]2C[C@H](O)[C@@H](COS(N)(=O)=O)O2)c2ncnc(N)c12
[1]
  EC50: 31500 nM
[3]
  IC50: 249 nM

## CC(C)Oc1nn([C@@H]2O[C@H](COS(N)(=O)=O)[C@@H](O)[C@H]2O)c2ncnc(N)c12
[1]
  EC50: > 50000 nM
[3]
  IC50: 2600 nM

## Nc1ncnc2c1c(Sc1cn[nH]c1)nn2[C@@H]1O[C@H](COS(N)(=O)=O)[C@@H](O)[C@H]1O
[5]
  IC50: 1280 nM
[1]
  EC50: > 50000 nM
[3]
  IC50: 16 nM

## Cc1cccc(Sc2nn([C@@H]3O[C@H](COS(N)(=O)=O)[C@@H](O)[C@@H]3F)c3ncnc(N)c23)c1
[5]
  IC50: 140 nM
[1]
  EC50: 49100 nM
[4]
  IC50: 51 nM
[2]
  IC50: 483 nM

## CC(C)Sc1nn([C@H]2C[C@H](O)[C@@H](COS(N)(=O)=O)O2)c2ncnc(N)c12
[5]
  IC50: 438 nM
[1]
  EC50: > 50000 nM
[4]
  IC50: 150 nM
[2]
  IC50: 1090 nM
[3]
  IC50: 27 nM

## CC(C)Sc1nn([C@H]2C[C@H](O)[C@H](COS(N)(=O)=O)O2)c2ncnc(N)c12
[5]
  IC50: 468 nM
[1]
  EC50: > 50000 nM
[2]
  IC50: 1920 nM
[3]
  IC50: 57 nM

## Nc1ncnc2c1c(SCc1ccccc1)nn2[C@@H]1O[C@H](COS(N)(=O)=O)[C@@H](O)[C@H]1O
[5]
  IC50: 604 nM
[1]
  EC50: > 50000 nM
[4]
  IC50: 322 nM
[3]
  IC50: 23 nM

## Nc1ncnc2c1c(Sc1cccc(Cl)c1)nn2[C@H]1C[C@H](O)[C@@H](COS(N)(=O)=O)O1
[5]
  IC50: 499 nM
[1]
  EC50: > 50000 nM
[2]
  IC50: 1150 nM
[3]
  IC50: 104 nM

## Nc1ncnc2c1c(Sc1ccc3c(c1)CCC3)nn2[C@H]1C[C@H](O)[C@@H](COS(N)(=O)=O)O1
[1]
  EC50: > 50000 nM
[2]
  IC50: 710 nM
[3]
  IC50: 66 nM

## Nc1ncnc2c1c(OC(F)F)nn2[C@@H]1O[C@H](COS(N)(=O)=O)[C@@H](O)[C@H]1O
[5]
  IC50: 479 nM
[1]
  EC50: 10000 nM
[4]
  IC50: 162 nM
[2]
  IC50: 2300 nM
[3]
  IC50: 29 nM

## Cc1cccc(Sc2nn([C@@H]3O[C@H](COS(N)(=O)=O)[C@@H](O)[C@H]3O)c3ncnc(N)c23)c1
[1]
  EC50: > 50000 nM
[4]
  IC50: 178 nM
[3]
  IC50: 18 nM

## CSc1nn([C@H]2C[C@H](O)[C@H](COS(N)(=O)=O)O2)c2ncnc(N)c12
[1]
  EC50: > 50000 nM
[2]
  IC50: 1260 nM
[3]
  IC50: 124 nM

## Nc1ncnc2c1c(OC(F)F)nn2[C@@H]1O[C@H](COS(N)(=O)=O)[C@@H](O)[C@@H]1F
[5]
  IC50: 453 nM
[1]
  EC50: 18300 nM
[3]
  IC50: 43 nM

## CC(C)Sc1nn([C@@H]2O[C@H](COS(N)(=O)=O)[C@@H](O)[C@H]2O)c2ncnc(N)c12
[5]
  IC50: 1250 nM
[1]
  EC50: > 50000 nM
[4]
  IC50: 284 nM
[2]
  IC50: 4230 nM
[3]
  IC50: 17 nM

## Cc1cccc(Sc2nn([C@H]3C[C@H](O)[C@@H](COS(N)(=O)=O)O3)c3ncnc(N)c23)c1
[5]
  IC50: 422 nM
[1]
  EC50: > 50000 nM
[2]
  IC50: 1260 nM
[3]
  IC50: 95 nM

## Nc1ncnc2c1c(Sc1cccc(Cl)c1)nn2[C@@H]1O[C@H](COS(N)(=O)=O)[C@@H](O)[C@@H]1F
[5]
  IC50: 198 nM
[1]
  EC50: 39700 nM
[4]
  IC50: 56 nM
[2]
  IC50: 534 nM
[3]
  IC50: 31 nM

## COc1nn([C@@H]2O[C@H](COS(N)(=O)=O)[C@@H](O)[C@H]2O)c2ncnc(N)c12
[6]
  IC50: > 1000 nM
[1]
  EC50: 5940 nM
[4]
  IC50: 335 nM
[7]
  IC50: > 50000 nM
[2]
  IC50: 2600 nM
[3]
  IC50: 89 nM
[8]
  IC50: > 1000 nM

## Nc1ncnc2c1c(Sc1ccc3c(c1)CCC3)nn2[C@H]1C[C@H](O)[C@H](COS(N)(=O)=O)O1
[1]
  EC50: > 50000 nM
[2]
  IC50: 996 nM
[3]
  IC50: 156 nM

## Nc1ncnc2c1cnn2[C@@H]1O[C@H](COS(N)(=O)=O)[C@@H](O)[C@H]1O
[1]
  EC50: 75 nM
[3]
  IC50: 457 nM

## COc1nn([C@@H]2O[C@H](COS(N)(=O)=O)[C@@H](O)[C@@H]2F)c2ncnc(N)c12
[1]
  EC50: 33900 nM
[4]
  IC50: 317 nM
[3]
  IC50: 177 nM

## Nc1ncnc2c1c(CCc1ccccc1)nn2[C@@H]1O[C@H](COS(N)(=O)=O)[C@@H](O)[C@H]1O
[1]
  EC50: > 50000 nM
[3]
  IC50: 351 nM

## Cc1ccc(Sc2nn([C@H]3C[C@H](O)[C@@H](COS(N)(=O)=O)O3)c3ncnc(N)c23)c(F)c1
[1]
  EC50: > 50000 nM
[2]
  IC50: 533 nM
[3]
  IC50: 80 nM

## CSc1nn([C@@H]2O[C@H](COS(N)(=O)=O)[C@@H](O)[C@H]2O)c2ncnc(N)c12
[5]
  IC50: 431 nM
[1]
  EC50: 1540 nM
[4]
  IC50: 83 nM
[2]
  IC50: 1500 nM
[3]
  IC50: 14 nM

## Nc1ncnc2c1c(Sc1ccccc1)nn2[C@@H]1O[C@H](COS(N)(=O)=O)[C@@H](O)[C@H]1O
[1]
  EC50: > 50000 nM
[4]
  IC50: 201 nM
[3]
  IC50: 29 nM

## CSc1nn([C@@H]2O[C@@H](COS(N)(=O)=O)[C@@H](O)[C@H]2O)c2ncnc(N)c12
[5]
  IC50: 1280 nM
[1]
  EC50: > 50000 nM
[2]
  IC50: 6000 nM
[3]
  IC50: 325 nM

## CC(C)Sc1nn([C@@H]2O[C@@H](COS(N)(=O)=O)[C@@H](O)[C@H]2O)c2ncnc(N)c12
[5]
  IC50: 882 nM
[1]
  EC50: > 50000 nM
[4]
  IC50: 882 nM
[2]
  IC50: 20100 nM
[3]
  IC50: 129 nM

## CCOc1nn([C@@H]2O[C@H](COS(N)(=O)=O)[C@@H](O)[C@H]2O)c2ncnc(N)c12
[1]
  EC50: 49400 nM
[3]
  IC50: 255 nM

## CCSc1nn([C@@H]2O[C@H](COS(N)(=O)=O)[C@@H](O)[C@H]2O)c2ncnc(N)c12
[1]
  EC50: 15400 nM
[4]
  IC50: 160 nM
[3]
  IC50: 22 nM

## Nc1ncnc2c1c(O)nn2[C@@H]1O[C@H](COS(N)(=O)=O)[C@@H](O)[C@H]1O
[1]
  EC50: > 50000 nM
[3]
  IC50: 84 nM

## Cc1ccc(Sc2nn([C@H]3C[C@H](O)[C@H](COS(N)(=O)=O)O3)c3ncnc(N)c23)c(F)c1
[6]
  IC50: > 1000 nM
[9]
  EC50: 3000 nM
[1]
  EC50: > 50000 nM
[10]
  EC50: 9400 nM
[7]
  IC50: > 1000 nM
[2]
  IC50: 659 nM
[3]
  IC50: 62 nM
[8]
  IC50: > 1000 nM
